{
  "source": "patent US20070098469A1",
  "about": "“Fixing apparatus for nonheat fixing system, and image forming apparatus having fixing apparatus” (priority 2005, published 2007)",
  "origin": "cited, not measured here",
  "data": [
    {"details": "in vivo", "units": {"LD50": "mg/kg"}, "values": [
      {"smiles": "CCCCOC(=O)CCCCCCCCC(=O)OCCCC", "note": "[Di-n-butyle sebacate]", "LD50": 14900},
      {"smiles": "CCOCCOC(=O)CCC(=O)OCCOCC", "note": "[Diethoxyethyl succinate]", "LD50": 5000},
      {"smiles": "CC(C)COC(=O)CCCCC(=O)OCC(C)C", "note": "[Diisobutyl adipate]", "LD50": 12300},
      {"smiles": "CCO", "note": "[Ethanol]", "LD50": 20000}
    ]}
  ]
}
